Results from patent US6506799B1, “Methods of treating cardiovascular diseases, dyslipidemia, dyslipoproteinemia, and hypertension with ether compounds” (Esperion Therapeutics, Inc., priority 1999, dated 2003).

What was measured:
[1] = system: chow fed male Sprague-Dawley rats; experiment: Serum lipids, apolipoproteins and weight gain in chow fed male Sprague-Dawley rats after seven days of treatment; format: in vivo, rat
Protocol: Illustrative compounds of the invention were administered daily at a dose of 100 mg/kg to chow fed male Sprague-Dawley rats for seven days in the morning by oral gavage in 1.5% carboxymethylcellulose/0.2% Tween-20 (dosing vehicle). Animals were weighed daily. Animals were allowed free access to rodent chow and water throughout the study. After the seventh dose, animals were sacrificed in the evening and blood serum was assayed for lipoprotein cholesterol profiles, serum triglycerides, total cholesterol VLDL, LDL, and HDL cholesterol, and the ratio of HDL cholesterol to that of VLDL plus LDL cholesterol, apolipoproteins A-I, C-II, C-III, and E by immunoelectrophoresis, and percent weight gain.
The five compounds were tested in two separate experiments. In each experiment, the experimental data were normalized against a control group of rats which received the dosing vehicle alone.

[2] = system: primary rat hepatocytes; experiment: Synthesis of non-saponified and saponified lipids (14C-acetate incorporation) in hepatocytes; format: cell-based; details: 100 μM; 14C-acetate 2 hr; vs no compound control
Protocol: A male Sprague-Dawley rat was anesthetized by administration of sodium pentobarbitol by intraparitoneal injection at 50 mg/kg. In situ perfusion of the liver was performed as follows. […] To digest the liver, DSC solution (6.7 mM KCl, 143 mM NaCl, 9.2 mM Na HEPES, 5 mM CaCl2-2H2O, 1.7 mM Fructose, 0.029 mM Phenol red, 0.2% BSA, 100 U/ml collagenase Type I, 93 U/ml Hyaluronidase, 160 BAEE/ml trypsin inhibitor, pH 7.5) was perfused through the liver at a flow rate of 30 ml/min for 6 minutes at a temperature of 37° C. After digestion, cells were dispersed in a solution of DMEM-(DMEM containing 2 mM GlutMax-1, 0.2% BSA, 5% FBS, 12 nM insulin, 1.2 μM hydrocortisone) to stop the digestion process. The crude cell suspension was filtered through three layers of stainless steel mesh with pore sizes of 250, 106, and 75 μm respectively. Filtered cells were centrifuged at 50×g for two minutes and the supernatant discarded. The resulting cell pellet was resuspended in DMEM and centrifuged again. This final cell pellet was resuspended in DMEM+HS solution (DMEM containing 2 mM GlutMax-1, 20 nM delta-aminolevulinic acid, 17.4 mM MEM non-essential amino acids, 20% FBS, 12 nM insulin, 1.2 µM hydrocortisone) and plated to form monolayer cultures at a density of 100×10^3 cells/cm^2 on collagen coated culture dishes. Four hours after initial plating, media was changed to DMEM+(DMEM containing 2 mM GlutMax-1, 20 nM delta-aminolevulinic acid, 17.4 mM MEM non-essential amino acids, 10% FBS, 12 nM insulin, 1.2 μM hydrocortisone) and remained on cells overnight.
To test the effect of illustrative compounds of the invention on synthesis rates of non-saponified and saponified lipids, the monolayer cultures were exposed to 1 μM of lovastatin or 100 μM Compound A, B, D, E or F in DMEM+ containing 1 μCi/ml ^14C-acetate. Control cells were exposed to the same media lacking lovastatin or the test compounds. All cells were exposed to 0.1% DMSO. Metabolic labeling with ^14C-acetate continued for 2 hr at 37° C. After labeling, cells were washed twice with 1 ml of PBS followed by lysing in 1 ml of deionized water. Cells were scraped from the dishes, transferred to glass tubes and sonicated. 2.5 ml of 2:1 chloroform/methanol mixture was added followed by 1.5 ml of Phosphate Buffered Saline (PBS). To correct for extraction efficiency in the upcoming extractions, 3000 dpm of ^3H-cholesterol was added to each tube. Tubes were shaken for 30 min. to extract lipids into the organic phase followed by centrifugation for 10 minutes at 1000×g to separate the organic and aqueous phases. The lower organic phase containing total lipids was removed and placed in a new tube. The organic solution was evaporated under N2. […]

[3] = 100 mg/kg, 7 days, compared to control, FIG. 3
[4] = 100 mg/kg, 7 days, vs vehicle, FIG. 2
[5] = 100 mg/kg/day oral gavage, 7 days, normalized against vehicle control

CC(C)(CO)CCCCOCCCCC(C)(C)CO [Compound A, 6-(6-hydroxy-5,5-dimethylhexyloxy)-2,2-dimethyl-hexan-1-ol]
elevation of apolipoprotein A-I [1, 3]: 16% | elevation of apolipoprotein E [1, 3]: 46% | reduction of apolipoprotein C-II [1, 3]: 20% | reduction of apolipoprotein C-III [1, 3]: 16% | ratio of HDL to non-HDL cholesterol (VLDL plus LDL) ([1]; 100 mg/kg, 7 days, control 2.6±0.2): 6.2±1.0 | improvement in the ratio of HDL to non-HDL cholesterol ([1]; 100 mg/kg, 7 days, vs control): 2.44 fold | change in VLDL cholesterol ([1]; 100 mg/kg, 7 days, vs vehicle): no change | elevation in HDL cholesterol ([1]; 100 mg/kg, 7 days, vs vehicle): 49% | reduction in LDL cholesterol ([1]; 100 mg/kg, 7 days, vs vehicle): 41% | elevation of total serum cholesterol [1, 4]: 26% | reduction of serum triglycerides [1, 4]: 31% | percentage body weight gain ([1]; 100 mg/kg, after seven days, control 68.3±1.2%): 63.4±1.9% | HDL-Cholesterol (% change) [1, 5]: +21.1 % change | LDL-Cholesterol (% change) [1, 5]: −27.7 % change | Triglyceride (% change) [1, 5]: +7.6 % change | reduction of the rate of non-saponified lipid synthesis [2]: at least 85% | reduction of the rate of saponified lipid synthesis [2]: at least 85%
